US7361681B2, “Method of treating amytrophic lateral sclerosis using melatonin” (SYGNIS Bioscience GmbH & Co. KG, priority 2003, dated 2008)
Where “and” joins values, the source holds several entries; their conditions need not be identical. Equal values may be shown once.

Columns and labels:
ALS patients = assay: pilot program of chronic high-dose melatonin in ALS patients; type: in vivo, human
From the text: Three ALS patients with an estimated onset of disease 2-4 yr previously, were included in a pilot program in Göttingen, set up to explore potential effects and side-effects of chronic high-dose melatonin in this condition. Intraindividual follow-up (upon entering the study, and after 1, 2, 6, 9 and 13 months of treatment thus far) included physical examination/clinical rating scales (ALS functional rating scale, ALSFRS), pulmonary function test, EMG-NCV, routine laboratory parameters, psychological rating scales, as well as magnetic resonance imaging and MR spectroscopy. Patients received 30-60 mg of melatonin as an oral slow release formulation in the late evening. In addition, they continued their “regular medication” in the morning and at noon (RIUZOLE® 50-100 mg, vitamins C and E, creatine, […]).

[1] = cited from earlier work
[2] = 30-60 mg melatonin oral slow release in the late evening, up to 13 months

Procedure for SODG93A-transgenic mice: Rotarod failure is defined to start when mice are no longer able to stay in the rotarod for more than 300 sec (=early disease state).
Shown are days after score 1 (abnormal hindlimb reflex or tremor in at least one extremity or asymmetrical gait) to score 4 (endpoint criteria/death).
Melatonin was continuously applied via drinking water (0.5 mg/ml of water containing 1% of ethanol to enable a saturated solution of melatonin) starting on day 28 of life and continued until death. The vehicle control received water containing 1% of ethanol.

In the case of COc1ccc2[nH]cc(CCNC(C)=O)c2c1 [melatonin, N-acetyl-5-methoxytryptamine], the “side effects reported or detected” value (ALS patients; [2]) is reported as “No side effects”, the signs of fatigue (ALS patients; [2]) is reported as “no signs of fatigue” and the “tolerability over the entire observation period” value (ALS patients; 30-60 mg melatonin oral slow release in the late evening, up to 13 months, plus regular medication) is reported as “well tolerated”. For the same compound, the “clinical laboratory parameters (blood cell count, electrolytes, liver enzymes, creatinine, CRP etc.) during melatonin treatment” value (ALS patients; 30-60 mg melatonin oral slow release nightly) was “did not show alterations”, the “clinical rating scale (ALSFRS) one year later” value (ALS patients; three patients, 30-60 mg melatonin oral slow release nightly) was 22 and 11 and 20 and the “clinical rating scale (ALSFRS) at the start of the trial” value (ALS patients; three patients, baseline) was 34 and 25 and 31. The “crossing of the blood-brain barrier” value ([1]; in vivo) was “readily crosses”, the “duration of high plasma levels” value ([1]; slow release preparations) was “about 6 hr” and the “survival and course of disease (rotarod performance, progression of paresis, weight loss)” value (SODG93A-transgenic mice; 0.5 mg/ml in drinking water with 1% ethanol, from day 28 of life until death) was “significant improvement”. The “adverse effects of systemic melatonin” value (SODG93A-transgenic mice; 0.5 mg/ml in drinking water, application of several months) was “No adverse effects”, the “days from rotarod failure (no longer able to stay more than 300 sec) to death, versus vehicle” value (SODG93A-transgenic mice; SODG93A mice, n=9-12 per group, FIG. 1) was “significantly more” and the “days from clinical score 1 to score 4 (endpoint criteria/death), versus vehicle” value (SODG93A-transgenic mice; SODG93A mice, n=9-12 per group, FIG. 2) was “significantly more”.
